Assay results taken from article PMC8115619, “Generation of a chemical genetic model for JAK3” (Scientific Reports, 2021).

Experiments:
[1] = system: IL-4 induced STAT6 phosphorylation in JAK3 Cys905Ser knockin BMDMs; assay: Inhibitor washout, IL-4 induced STAT6 phosphorylation, JAK3 Cys905Ser knockin BMDMs; type: cell-based, mouse; details: inhibitor 2 h, washed 3 times in PBS; 10 μM TL6-144, 100 μM PF-06651600
Description: To test this, cells were treated with a high concentration of inhibitor for 2 h before being washed 3 times in PBS and then incubated in media without inhibitor for 0.5 to 24 h. […] To confirm this was not the case, similar experiments were done in JAK3 Cys905Ser knockin cells.
BMDMs were isolated from wild type and JAK3 Cys905Ser knockin mice. […] The macrophages were then either stimulated with 10 ng/ml IL-4 for 30 min or washed 3 times in PBS and then incubated in media without inhibitor for the indicated times. The cells were then stimulated with IL-4 for 30 min and STAT6 phosphorylation determined by immunoblotting using levels of ERK1/2 as a loading control.
Briefly, bone marrow was flushed in PBS from the femurs and tibias of mice. Cells were cultured on bacterial grade plastic for 7 days at 37 °C, 5% CO2. […]
Cells were lysed directly into SDS sample buffer and aliquots run on 10% polyacrylamide gels using standard methods[51]. Proteins were transferred onto nitrocellulose membranes, and specific proteins were detected by immunoblotting. […] Bands were detected using Clarity ECL reagents from BioRad and imaged on a Licor Odyssey Fc system. Quantification was carried out using Licor Image Studio software. After correction for the ERK1/2 levels to account for loading differences, percentage inhibition was calculated relative to the IL-4 stimulated condition.

BRK = BRK (Homo sapiens, UniProt Q13882); assay: Selectivity screen BRK; type: biochemical; details: 1 µM inhibitor, mean
Chain of BRK (Q13882 whole entry): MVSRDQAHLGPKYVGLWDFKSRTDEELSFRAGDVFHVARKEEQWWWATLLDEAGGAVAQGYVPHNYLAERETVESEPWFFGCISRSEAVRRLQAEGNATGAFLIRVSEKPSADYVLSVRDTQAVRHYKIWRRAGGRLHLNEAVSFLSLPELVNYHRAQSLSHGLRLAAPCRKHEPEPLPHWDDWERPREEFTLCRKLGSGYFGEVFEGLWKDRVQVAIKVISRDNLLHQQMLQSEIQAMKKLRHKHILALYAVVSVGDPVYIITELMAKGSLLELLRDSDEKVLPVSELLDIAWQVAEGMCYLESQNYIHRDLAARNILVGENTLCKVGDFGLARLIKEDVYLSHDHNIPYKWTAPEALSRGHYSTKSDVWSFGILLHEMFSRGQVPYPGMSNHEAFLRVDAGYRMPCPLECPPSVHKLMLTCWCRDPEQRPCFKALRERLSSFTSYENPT

CDK2-Cyclin A = CDK2-Cyclin A (Homo sapiens, UniProt P24941); assay: Selectivity screen CDK2-Cyclin A; type: biochemical; details: 1 µM inhibitor, mean
DDR2 = DDR2 (Homo sapiens, UniProt Q16832); assay: Selectivity screen DDR2; type: biochemical; details: 1 µM inhibitor, mean
Description: (§1) For the in vitro kinase assay, JAK3 (5–20 mU diluted in 50 mM Tris pH 7.5, 0.1 mM EGTA, 0.05% β-mercaptoethanol, 1 mg/ml BSA) was assayed against PDKtide ([…]) in a final volume of 25.5 µl containing 50 mM Tris pH 7.5, 0.1 mM EGTA, 0.05% β-mercaptoethanol, 100 µM substrate peptide, 10 mM magnesium acetate and 0.02 mM [33P-γ-ATP] (50–1000 cpm/pmole) and incubated for 30 min at room temperature. Assays were started by the addition of the ATP and stopped by addition of 5 µl of 0.5 M (3%) orthophosphoric acid and then harvested onto P81 Unifilter plates with a wash buffer of 50 mM orthophosphoric acid. To determine the Km for ATP, assays were run using 1, 5, 10, 20, 50, 100, 200, 400, 500 μM ATP and Km derived by non-linear regression fitting to the Michaelis–Menten equation v = Vmax[S]/(Km + [S]). IC50 values for inhibitors via non-linear regression using a parameter model: Y = Bottom + (Top–Bottom)/(1 + (IC50/X)^HillSlope). Non-linear regression was carried out in Prism (version 8). In vitro selectivity screen was carried out as described previously.

DYRK2 = DYRK2 (Homo sapiens, UniProt Q92630); assay: Selectivity screen DYRK2; type: biochemical; details: 1 µM inhibitor, mean
Description: as §1

EIF2AK3 = EIF2AK3 (Homo sapiens, UniProt Q9NZJ5); assay: Selectivity screen EIF2AK3; type: biochemical; details: 1 µM inhibitor, mean
Description: as §1

ERK5 = ERK5 (Homo sapiens, UniProt Q13164); assay: Selectivity screen ERK5; type: biochemical; details: 1 µM inhibitor, mean
Description: as §1

GCK = GCK (Homo sapiens, UniProt Q12851); assay: Selectivity screen GCK; type: biochemical; details: 1 µM inhibitor, mean
Description: as §1

HIPK1 = HIPK1 (Homo sapiens, UniProt Q86Z02); assay: Selectivity screen HIPK1; type: biochemical; details: 1 µM inhibitor, mean
Description: as §1

IKKb = IKKb (Homo sapiens, UniProt O14920); assay: Selectivity screen IKKb; type: biochemical; details: 1 µM inhibitor, mean
Description: as §1

IR = IR (Homo sapiens, UniProt P06213); assay: Selectivity screen IR; type: biochemical; details: 1 µM inhibitor, mean
Description: as §1

IRR = IRR (Homo sapiens, UniProt P14616); assay: Selectivity screen IRR; type: biochemical; details: 1 µM inhibitor, mean
Chain of IRR (P14616 27-1297): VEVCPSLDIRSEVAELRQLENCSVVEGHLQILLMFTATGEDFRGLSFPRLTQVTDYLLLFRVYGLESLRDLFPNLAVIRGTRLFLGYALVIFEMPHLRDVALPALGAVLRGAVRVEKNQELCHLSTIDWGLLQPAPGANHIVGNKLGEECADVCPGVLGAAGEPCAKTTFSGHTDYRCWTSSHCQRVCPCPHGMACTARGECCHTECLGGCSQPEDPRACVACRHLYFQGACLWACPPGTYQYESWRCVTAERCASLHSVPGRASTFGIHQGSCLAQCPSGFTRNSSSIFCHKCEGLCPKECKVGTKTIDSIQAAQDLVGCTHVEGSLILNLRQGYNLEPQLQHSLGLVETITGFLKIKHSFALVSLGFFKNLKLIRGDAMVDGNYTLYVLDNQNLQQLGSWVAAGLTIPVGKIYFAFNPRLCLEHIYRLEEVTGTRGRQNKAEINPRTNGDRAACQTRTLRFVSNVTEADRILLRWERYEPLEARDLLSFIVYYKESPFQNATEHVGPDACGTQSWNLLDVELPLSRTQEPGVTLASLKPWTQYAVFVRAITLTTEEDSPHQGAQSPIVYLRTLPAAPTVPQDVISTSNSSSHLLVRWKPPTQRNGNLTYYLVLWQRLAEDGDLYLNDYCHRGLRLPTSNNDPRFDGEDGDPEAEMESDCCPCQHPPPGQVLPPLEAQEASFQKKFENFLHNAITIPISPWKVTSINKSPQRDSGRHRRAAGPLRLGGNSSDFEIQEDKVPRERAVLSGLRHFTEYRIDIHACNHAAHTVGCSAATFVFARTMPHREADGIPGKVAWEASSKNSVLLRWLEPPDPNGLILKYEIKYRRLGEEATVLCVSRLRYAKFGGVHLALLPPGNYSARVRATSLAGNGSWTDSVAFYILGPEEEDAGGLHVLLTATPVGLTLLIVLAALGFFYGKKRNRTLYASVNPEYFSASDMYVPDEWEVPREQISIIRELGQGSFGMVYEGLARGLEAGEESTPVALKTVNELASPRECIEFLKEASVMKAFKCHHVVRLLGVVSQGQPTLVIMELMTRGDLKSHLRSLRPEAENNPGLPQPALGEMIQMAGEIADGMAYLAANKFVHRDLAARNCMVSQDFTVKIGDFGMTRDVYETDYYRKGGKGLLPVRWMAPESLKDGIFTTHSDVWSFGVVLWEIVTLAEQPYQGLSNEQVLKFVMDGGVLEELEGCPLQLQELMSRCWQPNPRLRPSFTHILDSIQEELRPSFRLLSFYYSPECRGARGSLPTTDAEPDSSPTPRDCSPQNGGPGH
Description: as §1

MAP4K5 = MAP4K5 (Homo sapiens, UniProt Q9Y4K4); assay: Selectivity screen MAP4K5; type: biochemical; details: 1 µM inhibitor, mean
Description: as §1

MAPKAP-K3 = MAPKAP-K3 (Homo sapiens, UniProt Q16644); assay: Selectivity screen MAPKAP-K3; type: biochemical; details: 1 µM inhibitor, mean
Description: as §1

NUAK1 = NUAK1 (Homo sapiens, UniProt O60285); assay: Selectivity screen NUAK1; type: biochemical; details: 1 µM inhibitor, mean
Chain of NUAK1 (O60285 whole entry): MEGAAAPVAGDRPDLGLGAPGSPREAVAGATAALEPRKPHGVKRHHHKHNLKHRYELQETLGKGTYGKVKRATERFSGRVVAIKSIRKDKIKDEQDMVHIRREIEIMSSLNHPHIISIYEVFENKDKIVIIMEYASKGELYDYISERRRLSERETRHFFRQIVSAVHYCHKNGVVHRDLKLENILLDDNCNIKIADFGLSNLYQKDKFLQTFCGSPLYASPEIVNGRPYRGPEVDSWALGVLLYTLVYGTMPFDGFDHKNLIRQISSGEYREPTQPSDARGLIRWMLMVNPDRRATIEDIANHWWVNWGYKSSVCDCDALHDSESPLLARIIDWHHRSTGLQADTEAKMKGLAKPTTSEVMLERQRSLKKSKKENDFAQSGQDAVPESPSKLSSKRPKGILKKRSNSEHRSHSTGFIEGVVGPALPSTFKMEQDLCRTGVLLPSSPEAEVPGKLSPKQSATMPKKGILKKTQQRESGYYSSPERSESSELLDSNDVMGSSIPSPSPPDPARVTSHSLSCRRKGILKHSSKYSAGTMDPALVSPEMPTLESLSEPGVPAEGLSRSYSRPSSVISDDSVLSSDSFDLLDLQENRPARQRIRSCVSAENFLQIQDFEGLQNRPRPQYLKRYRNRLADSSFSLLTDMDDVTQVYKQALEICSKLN
Description: as §1

OSR1 = OSR1 (Homo sapiens, UniProt O95747); assay: Selectivity screen OSR1; type: biochemical; details: 1 µM inhibitor, mean
Chain of OSR1 (O95747 whole entry): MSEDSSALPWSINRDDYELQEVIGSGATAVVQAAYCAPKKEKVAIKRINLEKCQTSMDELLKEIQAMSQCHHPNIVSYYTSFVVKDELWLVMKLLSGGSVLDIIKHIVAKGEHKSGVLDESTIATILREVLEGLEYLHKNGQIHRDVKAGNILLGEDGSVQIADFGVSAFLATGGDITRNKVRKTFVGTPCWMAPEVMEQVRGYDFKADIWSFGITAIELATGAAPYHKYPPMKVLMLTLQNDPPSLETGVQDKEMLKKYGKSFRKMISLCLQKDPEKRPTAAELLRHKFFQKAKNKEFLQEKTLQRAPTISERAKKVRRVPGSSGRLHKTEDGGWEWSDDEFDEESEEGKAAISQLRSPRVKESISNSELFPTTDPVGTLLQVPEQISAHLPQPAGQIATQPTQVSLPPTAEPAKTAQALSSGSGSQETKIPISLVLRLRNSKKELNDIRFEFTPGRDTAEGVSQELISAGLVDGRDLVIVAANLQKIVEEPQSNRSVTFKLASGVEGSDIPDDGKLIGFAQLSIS
Description: as §1

PAK4 = PAK4 (Homo sapiens, UniProt O96013); assay: Selectivity screen PAK4; type: biochemical; details: 1 µM inhibitor, mean
Description: as §1

PHK = assay: Selectivity screen PHK; type: biochemical; details: 1 µM inhibitor, mean
Description: as §1

PKCa = PKCa (Homo sapiens, UniProt P17252); assay: Selectivity screen PKCa; type: biochemical; details: 1 µM inhibitor, mean
Description: as §1

PKCz = PKCz (Homo sapiens, UniProt Q05513); assay: Selectivity screen PKCz; type: biochemical; details: 1 µM inhibitor, mean
Description: as §1

PKD1 = PKD1 (Homo sapiens, UniProt Q15139); assay: Selectivity screen PKD1; type: biochemical; details: 1 µM inhibitor, mean
Chain of PKD1 (Q15139 whole entry): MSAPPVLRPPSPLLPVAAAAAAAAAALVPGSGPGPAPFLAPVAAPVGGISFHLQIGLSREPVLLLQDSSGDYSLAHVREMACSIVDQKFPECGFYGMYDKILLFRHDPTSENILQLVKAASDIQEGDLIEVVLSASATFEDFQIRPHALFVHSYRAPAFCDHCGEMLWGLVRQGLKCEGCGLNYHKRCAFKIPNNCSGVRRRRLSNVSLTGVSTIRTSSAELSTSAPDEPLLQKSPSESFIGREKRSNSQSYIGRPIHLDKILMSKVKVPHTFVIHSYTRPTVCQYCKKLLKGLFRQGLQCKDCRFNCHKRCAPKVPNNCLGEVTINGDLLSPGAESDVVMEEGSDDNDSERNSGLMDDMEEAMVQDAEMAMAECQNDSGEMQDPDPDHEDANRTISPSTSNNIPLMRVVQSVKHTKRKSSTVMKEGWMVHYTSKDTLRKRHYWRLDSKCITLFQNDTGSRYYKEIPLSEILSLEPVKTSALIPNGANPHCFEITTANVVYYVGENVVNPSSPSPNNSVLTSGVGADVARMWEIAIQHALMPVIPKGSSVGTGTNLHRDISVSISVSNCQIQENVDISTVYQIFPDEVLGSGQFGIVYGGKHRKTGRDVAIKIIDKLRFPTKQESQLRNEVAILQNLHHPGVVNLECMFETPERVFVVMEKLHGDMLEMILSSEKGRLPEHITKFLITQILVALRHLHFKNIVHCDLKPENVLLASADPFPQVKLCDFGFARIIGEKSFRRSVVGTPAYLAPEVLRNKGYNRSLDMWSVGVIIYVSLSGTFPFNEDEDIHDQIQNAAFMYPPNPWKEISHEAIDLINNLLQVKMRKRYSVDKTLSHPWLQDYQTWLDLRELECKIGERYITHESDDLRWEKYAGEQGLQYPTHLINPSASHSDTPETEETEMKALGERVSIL
Description: as §1

PLK1 = PLK1 (Homo sapiens, UniProt P53350); assay: Selectivity screen PLK1; type: biochemical; details: 1 µM inhibitor, mean
Description: as §1

RIPK2 = RIPK2 (Homo sapiens, UniProt O43353); assay: Selectivity screen RIPK2; type: biochemical; details: 1 µM inhibitor, mean
Description: as §1

ROCK 2 = ROCK 2 (Homo sapiens, UniProt O75116); assay: Selectivity screen ROCK 2; type: biochemical; details: 1 µM inhibitor, mean
Description: as §1

RSK1 = RSK1 (Homo sapiens, UniProt Q15418); assay: Selectivity screen RSK1; type: biochemical; details: 1 µM inhibitor, mean
Description: as §1

S6K1 = S6K1 (Homo sapiens, UniProt P23443); assay: Selectivity screen S6K1; type: biochemical; details: 1 µM inhibitor, mean
Description: as §1

SGK1 = SGK1 (Homo sapiens, UniProt O00141); assay: Selectivity screen SGK1; type: biochemical; details: 1 µM inhibitor, mean
Chain of SGK1 (O00141 whole entry): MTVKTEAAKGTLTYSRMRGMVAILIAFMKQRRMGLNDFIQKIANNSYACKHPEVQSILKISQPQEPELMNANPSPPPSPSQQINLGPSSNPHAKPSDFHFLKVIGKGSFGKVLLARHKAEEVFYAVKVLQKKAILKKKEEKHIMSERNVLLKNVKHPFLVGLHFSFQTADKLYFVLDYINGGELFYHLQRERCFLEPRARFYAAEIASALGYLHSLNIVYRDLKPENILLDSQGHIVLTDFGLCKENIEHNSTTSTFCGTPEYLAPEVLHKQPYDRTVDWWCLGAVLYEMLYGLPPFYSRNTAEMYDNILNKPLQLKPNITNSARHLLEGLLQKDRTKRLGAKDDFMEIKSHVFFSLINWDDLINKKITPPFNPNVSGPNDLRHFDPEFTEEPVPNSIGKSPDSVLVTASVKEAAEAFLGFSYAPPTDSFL
Description: as §1

SRPK1 = SRPK1 (Homo sapiens, UniProt Q96SB4); assay: Selectivity screen SRPK1; type: biochemical; details: 1 µM inhibitor, mean
Description: as §1

STK33 = STK33 (Homo sapiens, UniProt Q9BYT3); assay: Selectivity screen STK33; type: biochemical; details: 1 µM inhibitor, mean
Description: as §1

SYK = SYK (Homo sapiens, UniProt P43405); assay: Selectivity screen SYK; type: biochemical; details: 1 µM inhibitor, mean
Description: as §1

TLK1 = TLK1 (Homo sapiens, UniProt Q9UKI8); assay: Selectivity screen TLK1; type: biochemical; details: 1 µM inhibitor, mean
Chain of TLK1 (Q9UKI8 whole entry): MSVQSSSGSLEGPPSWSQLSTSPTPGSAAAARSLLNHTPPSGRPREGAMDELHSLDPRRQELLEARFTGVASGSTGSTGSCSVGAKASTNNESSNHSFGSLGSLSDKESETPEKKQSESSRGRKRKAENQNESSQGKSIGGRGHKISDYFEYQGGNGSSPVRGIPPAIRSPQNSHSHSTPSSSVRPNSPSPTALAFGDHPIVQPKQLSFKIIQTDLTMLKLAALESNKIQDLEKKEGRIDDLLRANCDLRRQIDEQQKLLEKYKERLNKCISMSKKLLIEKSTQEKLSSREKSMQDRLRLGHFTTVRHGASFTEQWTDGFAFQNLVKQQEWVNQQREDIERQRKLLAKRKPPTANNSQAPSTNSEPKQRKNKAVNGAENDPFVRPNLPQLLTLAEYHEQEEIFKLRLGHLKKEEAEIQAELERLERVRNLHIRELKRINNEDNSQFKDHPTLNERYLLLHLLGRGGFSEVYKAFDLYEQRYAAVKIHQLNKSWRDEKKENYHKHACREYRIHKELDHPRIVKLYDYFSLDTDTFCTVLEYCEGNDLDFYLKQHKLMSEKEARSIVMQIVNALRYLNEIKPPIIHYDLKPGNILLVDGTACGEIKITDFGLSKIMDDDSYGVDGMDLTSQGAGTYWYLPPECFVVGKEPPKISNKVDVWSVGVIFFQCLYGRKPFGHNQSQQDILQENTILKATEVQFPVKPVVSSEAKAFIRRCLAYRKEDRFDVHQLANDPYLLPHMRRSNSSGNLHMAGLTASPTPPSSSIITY
Description: as §1

VEG-FR = VEG-FR (Homo sapiens, UniProt P17948); assay: Selectivity screen VEG-FR; type: biochemical; details: 1 µM inhibitor, mean
Description: as §1

WNK1 = WNK1 (Homo sapiens, UniProt Q9H4A3); assay: Selectivity screen WNK1; type: biochemical; details: 1 µM inhibitor, mean
Description: as §1

C=CC(=O)Nc1cccc(CNc2nc(Nc3ccc(N4CCN(C)CC4)cc3OC)ncc2Cl)c1 [TL6-144]
inhibition of IL-4 induced STAT6 phosphorylation after inhibitor washout, JAK3 Cys905Ser knockin BMDMs [1]: complete loss of inhibition | activity remaining in the presence of the inhibitor: BRK (BRK): 94 | activity remaining in the presence of the inhibitor: CDK2-Cyclin A (CDK2-Cyclin A): 87 | activity remaining in the presence of the inhibitor: DDR2 (DDR2): 83 | activity remaining in the presence of the inhibitor: DYRK2 (DYRK2): 92 | activity remaining in the presence of the inhibitor: EIF2AK3 (EIF2AK3): 98 | activity remaining in the presence of the inhibitor: ERK5 (ERK5): 87 | activity remaining in the presence of the inhibitor: GCK (GCK): 92 | activity remaining in the presence of the inhibitor: HIPK1 (HIPK1): 79 | activity remaining in the presence of the inhibitor: IKKb (IKKb): 100 | activity remaining in the presence of the inhibitor: IR (IR): 11 | activity remaining in the presence of the inhibitor: IRR (IRR): 56 | activity remaining in the presence of the inhibitor: MAP4K5 (MAP4K5): 83 | activity remaining in the presence of the inhibitor: MAPKAP-K3 (MAPKAP-K3): 119 | activity remaining in the presence of the inhibitor: NUAK1 (NUAK1): 4 | activity remaining in the presence of the inhibitor: OSR1 (OSR1): 47 | activity remaining in the presence of the inhibitor: PAK4 (PAK4): 99 | activity remaining in the presence of the inhibitor: PHK (PHK): 40 | activity remaining in the presence of the inhibitor: PKCa (PKCa): 81 | activity remaining in the presence of the inhibitor: PKCz (PKCz): 88 | activity remaining in the presence of the inhibitor: PKD1 (PKD1): 46 | activity remaining in the presence of the inhibitor: PLK1 (PLK1): 107 | activity remaining in the presence of the inhibitor: RIPK2 (RIPK2): 92 | activity remaining in the presence of the inhibitor: ROCK 2 (ROCK 2): 83 | activity remaining in the presence of the inhibitor: RSK1 (RSK1): 61 | activity remaining in the presence of the inhibitor: S6K1 (S6K1): 90 | activity remaining in the presence of the inhibitor: SGK1 (SGK1): 100 | activity remaining in the presence of the inhibitor: SRPK1 (SRPK1): 91 | activity remaining in the presence of the inhibitor: STK33 (STK33): 81 | activity remaining in the presence of the inhibitor: SYK (SYK): 107 | activity remaining in the presence of the inhibitor: TLK1 (TLK1): 102 | activity remaining in the presence of the inhibitor: VEG-FR (VEG-FR): 39 | activity remaining in the presence of the inhibitor: WNK1 (WNK1): 81

C=CC(=O)N1C[C@H](Nc2ncnc3[nH]ccc23)CC[C@@H]1C [PF-06651600, 1-((2S,5R)-5-((7H-Pyrrolo[2,3-d]pyrimidin-4-yl)amino)-2-methylpiperidin-1-yl)prop-2-en-1-one, reference compound]
inhibition of IL-4 induced STAT6 phosphorylation after inhibitor washout, JAK3 Cys905Ser knockin BMDMs [1]: not retained at any time post washout

C=CC(=O)Nc1cccc(CNc2nc(Nc3ccc(N4CCOCC4)cc3)ncc2Cl)c1 [TL8-52]
activity remaining in the presence of the inhibitor: BRK (BRK): 94 | activity remaining in the presence of the inhibitor: CDK2-Cyclin A (CDK2-Cyclin A): 84 | activity remaining in the presence of the inhibitor: DDR2 (DDR2): 76 | activity remaining in the presence of the inhibitor: DYRK2 (DYRK2): 87 | activity remaining in the presence of the inhibitor: EIF2AK3 (EIF2AK3): 90 | activity remaining in the presence of the inhibitor: ERK5 (ERK5): 63 | activity remaining in the presence of the inhibitor: GCK (GCK): 21 | activity remaining in the presence of the inhibitor: HIPK1 (HIPK1): 96 | activity remaining in the presence of the inhibitor: IKKb (IKKb): 104 | activity remaining in the presence of the inhibitor: IR (IR): 15 | activity remaining in the presence of the inhibitor: IRR (IRR): 75 | activity remaining in the presence of the inhibitor: MAP4K5 (MAP4K5): 63 | activity remaining in the presence of the inhibitor: MAPKAP-K3 (MAPKAP-K3): 62 | activity remaining in the presence of the inhibitor: NUAK1 (NUAK1): 3 | activity remaining in the presence of the inhibitor: OSR1 (OSR1): 98 | activity remaining in the presence of the inhibitor: PAK4 (PAK4): 85 | activity remaining in the presence of the inhibitor: PHK (PHK): 78 | activity remaining in the presence of the inhibitor: PKCa (PKCa): 91 | activity remaining in the presence of the inhibitor: PKCz (PKCz): 98 | activity remaining in the presence of the inhibitor: PKD1 (PKD1): 86 | activity remaining in the presence of the inhibitor: PLK1 (PLK1): 114 | activity remaining in the presence of the inhibitor: RIPK2 (RIPK2): 71 | activity remaining in the presence of the inhibitor: ROCK 2 (ROCK 2): 93 | activity remaining in the presence of the inhibitor: RSK1 (RSK1): 60 | activity remaining in the presence of the inhibitor: S6K1 (S6K1): 87 | activity remaining in the presence of the inhibitor: SGK1 (SGK1): 89 | activity remaining in the presence of the inhibitor: SRPK1 (SRPK1): 97 | activity remaining in the presence of the inhibitor: STK33 (STK33): 94 | activity remaining in the presence of the inhibitor: SYK (SYK): 63 | activity remaining in the presence of the inhibitor: TLK1 (TLK1): 82 | activity remaining in the presence of the inhibitor: VEG-FR (VEG-FR): 6 | activity remaining in the presence of the inhibitor: WNK1 (WNK1): 112
